# Test results reported in PubChem BioAssay AID1918943 (Molecular Pharmacology Branch, DTP, NCI, 2023).
# Where “and” joins values, the source holds several entries; their conditions need not be identical. Equal values may be shown once.
# System: 855422-203-R-J1-PDC complex spheroid viability
# Assay: Anticancer human tumor 855422-203-R-J1-PDC patient-derived bladder carcinoma cell line growth inhibition
# Conditions: for viability, T/C: stronger effect = lower value
# How it was run: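 Multicellular complex spheroids of tumor cells with human endothelial cells (HUVEC) and mesenchymal stem cells; the LSD1 inhibitor iadademstat was combined with standard-of-care or investigational agents. Top concentration at or near clinical Cmax, half-log dilutions; final DMSO ≤0.25%.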
# [1] = curve of first compound, second compound 0.1 µM
# [2] = curve of first compound, second compound 0.316 µM
# [3] = curve of first compound, second compound 1 µM
# [4] = curve of first compound, second compound 3.16 µM
# [5] = curve of first compound, second compound 10 µM
# [6] = second compound 0.1 µM, first compound 0.0316 µM
# [7] = second compound 0.1 µM, first compound 0.1 µM
# [8] = second compound 0.316 µM, first compound 0.0316 µM
# [9] = second compound 0.316 µM, first compound 0.1 µM
# [10] = second compound 1 µM, first compound 0.0316 µM
# [11] = second compound 1 µM, first compound 0.1 µM
# [12] = second compound 3.16 µM, first compound 0.0316 µM
# [13] = second compound 3.16 µM, first compound 0.1 µM
# [14] = second compound 10 µM, first compound 0.0316 µM
# [15] = second compound 10 µM, first compound 0.1 µM
# 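Note: drug exposure lasted 7 days starting on day 3 after seeding.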
# 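Throughout, for viability, T/C: luminescence viability as percent of DMSO vehicle wells = 100%.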
compound,measurement,setting,value
COc1ccc([C@@H](O)c2cc(-c3ncnc4cc(N5CCOCC5)ccc34)c(F)cc2Cl)nn1 + NC1CCC(NC2CC2c2ccccc2)CC1,IC50,[1],3.98 µM
same,IC50,[2],3.75 µM
same,IC50,[3],3.58 µM
same,IC50,[4],3.12 µM
same,IC50,[5],3.23 µM
same,"viability, T/C",[6],83.7%
same,"viability, T/C",[7],88.8%
same,"viability, T/C","second compound 0.1 µM, first compound 0.316 µM",76.3%
same,"viability, T/C","second compound 0.1 µM, first compound 1 µM",73.8%
same,"viability, T/C","second compound 0.1 µM, first compound 3.16 µM",53.1%
same,"viability, T/C","second compound 0.1 µM, first compound 10 µM",34.5%
same,"viability, T/C",[8],88.5%
same,"viability, T/C",[9],89.4%
same,"viability, T/C","second compound 0.316 µM, first compound 0.316 µM",73.4%
same,"viability, T/C","second compound 0.316 µM, first compound 1 µM",69.3%
same,"viability, T/C","second compound 0.316 µM, first compound 3.16 µM",53%
same,"viability, T/C","second compound 0.316 µM, first compound 10 µM",33.5%
same,"viability, T/C",[10],87.1%
same,"viability, T/C",[11],84.7%
same,"viability, T/C","second compound 1 µM, first compound 0.316 µM",73.3%
same,"viability, T/C","second compound 1 µM, first compound 1 µM",68%
same,"viability, T/C","second compound 1 µM, first compound 3.16 µM",53%
same,"viability, T/C","second compound 1 µM, first compound 10 µM",30.8%
same,"viability, T/C",[12],85.2%
same,"viability, T/C",[13],78.2%
same,"viability, T/C","second compound 3.16 µM, first compound 0.316 µM",75.1%
same,"viability, T/C","second compound 3.16 µM, first compound 1 µM",68.2%
same,"viability, T/C","second compound 3.16 µM, first compound 3.16 µM",48.4%
same,"viability, T/C","second compound 3.16 µM, first compound 10 µM",31.3%
same,"viability, T/C",[14],76.9%
same,"viability, T/C",[15],80%
same,"viability, T/C","second compound 10 µM, first compound 0.316 µM",71.7%
same,"viability, T/C","second compound 10 µM, first compound 1 µM",64.7%
same,"viability, T/C","second compound 10 µM, first compound 3.16 µM",50.6%
same,"viability, T/C","second compound 10 µM, first compound 10 µM",32.8%
CC(C)CC(NC(=O)CNC(=O)c1cc(Cl)ccc1Cl)B1OC(=O)CC(CC(=O)O)(C(=O)O)O1 (stereo unspecified) + NC1CC1c1ccc(-c2cccc(O)c2)cc1,IC50,[1],0.0018 µM
same,IC50,[2],0.00183 µM
same,IC50,[3],0.00184 µM
same,IC50,[4],0.00175 µM
same,IC50,[5],0.00155 µM
same,"viability, T/C","second compound 0.1 µM, first compound 0.000316 µM",92.8%
same,"viability, T/C","second compound 0.1 µM, first compound 0.001 µM",104%
same,"viability, T/C","second compound 0.1 µM, first compound 0.00316 µM",3.7%
same,"viability, T/C","second compound 0.1 µM, first compound 0.01 µM",0.43%
same,"viability, T/C",[6],0.02%
same,"viability, T/C",[7],0.13%
same,"viability, T/C","second compound 0.316 µM, first compound 0.000316 µM",104%
same,"viability, T/C","second compound 0.316 µM, first compound 0.001 µM",102%
same,"viability, T/C","second compound 0.316 µM, first compound 0.00316 µM",3.27%
same,"viability, T/C","second compound 0.316 µM, first compound 0.01 µM",1.25%
same,"viability, T/C",[8],0.02%
same,"viability, T/C",[9],0.1%
same,"viability, T/C","second compound 1 µM, first compound 0.000316 µM",94.6%
same,"viability, T/C","second compound 1 µM, first compound 0.001 µM",108%
same,"viability, T/C","second compound 1 µM, first compound 0.00316 µM",3.81%
same,"viability, T/C","second compound 1 µM, first compound 0.01 µM",1.65%
same,"viability, T/C",[10],0.03%
same,"viability, T/C",[11],0.11%
same,"viability, T/C","second compound 3.16 µM, first compound 0.000316 µM",95%
same,"viability, T/C","second compound 3.16 µM, first compound 0.001 µM",94.6%
same,"viability, T/C","second compound 3.16 µM, first compound 0.00316 µM",3.11%
same,"viability, T/C","second compound 3.16 µM, first compound 0.01 µM",1%
same,"viability, T/C",[12],0.03%
same,"viability, T/C",[13],0.1%
same,"viability, T/C","second compound 10 µM, first compound 0.000316 µM",92%
same,"viability, T/C","second compound 10 µM, first compound 0.001 µM",78.9%
same,"viability, T/C","second compound 10 µM, first compound 0.00316 µM",2.61%
same,"viability, T/C","second compound 10 µM, first compound 0.01 µM",0.2%
same,"viability, T/C",[14],0.11%
same,"viability, T/C",[15],0.17%
CC(C)c1c(-c2ccccc2)nc2c(C#N)c[nH]n2c1=O,"viability, T/C",compound 0.0316 µM,98.3% and 101%
same,"viability, T/C",compound 0.1 µM,104% and 106%
same,"viability, T/C",compound 0.316 µM,96.1% and 107%
same,"viability, T/C",compound 1 µM,104% and 99.9%
same,"viability, T/C",compound 3.16 µM,94.5% and 99.2%
same,"viability, T/C",compound 10 µM,95.4% and 90.9%
same,IC50,curve of compound,> 10 µM
NC1CC1c1ccc(-c2cccc(O)c2)cc1 (stereo unspecified),"viability, T/C",compound 0.1 µM,84.2%
same,"viability, T/C",compound 0.316 µM,93.7% [middle of 25 runs]
same,"viability, T/C",compound 1 µM,90.2% [middle of 25 runs]
same,IC50,"compound alone, run of 12/07/2021",> 10 µM
